From article PMC7576608, “Mechanisms of telomerase inhibition by oxidized and therapeutic dNTPs” (Nature Communications, 2020)

Tested on: telomerase
Assay: Direct telomerase assay in the absence or presence of POT1-TPP1 (processivity R1/2)
Format: biochemical, human
Details: for Effect of POT1-TPP1 on telomerase in presence of analog (in words): analog substituted for its natural dNTP
From the text: Next we tested whether the telomerase processivity factor POT1–TPP1 modulates modified dNTP inhibition of telomerase. POT1 binds to the telomeric ssDNA overhang, requiring the minimum sequence of 5′-[…]-3′[38]. Inclusion of POT1-binding partner TPP1, increases the binding affinity for telomeric DNA ten-fold compared to POT1 alone. POT1–TPP1 recruits telomerase to telomeres in vivo[39], and greatly increases telomerase repeat processivity. Therefore, we reasoned that POT1–TPP1 may overcome inhibition by the modified dNTPs and enhance telomerase processivity. We conducted telomerase extension reactions with radiolabeled primer in the presence of POT1–TPP1, and used a primer with a single mutation ([…]; underlined G to C mutation)[40] to ensure POT1–TPP1 is positioned at the 5′ portion of the primer (Fig. 5). This provides a homogenous substrate for telomerase extension.
For these reactions, we replaced the natural dNTP with the modified dNTP analog, while the other dNTPs remained at cellular relevant concentrations.
Direct telomerase assays were conducted in the absence or presence of 500 nM POT1 and 500 nM TPP1, as indicated, and 5 nM ^32P-end labeled primer ([…]) designed to position POT1 at the 10 nt primer 5′ end. Reactions contained cellular-concentration dNTPs (lanes 1 and 2), except when the natural dNTP was substituted with the oxidized dNTP a or therapeutic dNTP b analog (lanes 3–8), as indicated. […] Letters on the right indicate template base; P indicates unextended 18-mer primer. c Processivity was calculated on the basis of total products normalized to loading control. Images are representative of, and data are shown as mean ± s.d. from 3 to 5 independent experiments. Source data are provided as a Source Data file.
The reactions were started by the addition of 3 μl of immunopurified telomerase eluent, incubated at 37 °C for 1 h, then terminated with 2 μl of […] and heat inactivated at 65 °C for 20 min. An equal volume of loading buffer (94% formamide, 0.1× TBE, 0.1% bromophenol blue, 0.1% xylene cyanol) was added to the reaction eluent. The samples were heat denatured for 10 min at 100 °C and loaded onto a 14% denaturing acrylamide gel (7 M urea, 1× TBE) and electrophoresed for 90 min at constant 38 W. Samples were imaged using a Typhoon phosphorimager (GE Healthcare). Percent primer extension was calculated with ImageQuant TL 8.2 by measuring the intensity of each product band and dividing by the total radioactivity in the lane or total products, as indicated in the figure legends.
The processivity was calculated as described[40],[67]. Repeat processivity from the direct telomerase extension assays was calculated as R1/2 (equivalent to the half-time for decay in an exponential time course), which represents the median length of DNA product formed, expressed in terms of number of telomere repeats. First, the total volume counts for each product band extend by one or more telomere repeats were obtained using Image Quant TL. The volume counts were then normalized by dividing by the number of radiolabeled guanosines incorporated into the extended products based on the number of repeats added, termed corrected volume (corr vol). The “percent left behind” (%LB) was calculated for each product band by summing the counts for that product band and for every product band below (shorter products), divided by the total counts for the lane, and then multiplied by 100. The natural log of (100−%LB) was calculated and then plotted vs. repeat number for each product length. A linear regression line was fit to the data to determine the slope of the line.

SMILES | Fold enhancement of repeat processivity by POT1-TPP1 (2-OH-dATP replaced dATP) | Effect of POT1-TPP1 on telomerase in presence of analog (in words)
Nc1nc(O)nc2c1ncn2C1CC(O)C(COP(=O)(O)OP(=O)(O)OP(=O)(O)O)O1 (stereo not drawn) [2-OH-dATP] | 5 fold | –
Nc1nc2c(ncn2C2CC(O)C(COP(=O)(O)OP(=O)(O)OP(=O)(O)O)O2)c(=S)[nH]1 (stereo not drawn) [6-thio-dGTP] | – | failed to stimulate telomerase
Nc1ncnc2c1[nH]c(=O)n2C1CC(O)C(COP(=O)(O)OP(=O)(O)OP(=O)(O)O)O1 (stereo not drawn) [8-oxo-dATP] | – | some POT1–TPP1 stimulation
Nc1nc2c([nH]c(=O)n2C2CC(O)C(COP(=O)(O)OP(=O)(O)OP(=O)(O)O)O2)c(=O)[nH]1 (stereo not drawn) [8-oxo-dGTP] | – | unable to overcome the chain termination
Cc1cn([C@H]2C[C@H](N=[N+]=[N-])[C@@H](CO[P@](=O)(O)O[P@](=O)(O)OP(=O)(O)O)O2)c(=O)[nH]c1=O [AZT-TP] | – | failed to stimulate telomerase processivity
O=c1[nH]cnc2c1ncn2C1CCC(COP(=O)(O)OP(=O)(O)OP(=O)(O)O)O1 (stereo not drawn) [ddITP] | – | failed to stimulate telomerase processivity
